“Also recorded” adds a separate entry of the source.
How the values were obtained:
[1] = target: T1, PTP1B (Homo sapiens, UniProt P18031); assay: Dilution (reversibility) assay with PTP1B; type: biochemical; conditions: 50 µM, 1 h at 37 °C, then diluted 500 fold
T1 construct: human recombinant PTP1B (1–302)
T1 sequence (P18031 1-302): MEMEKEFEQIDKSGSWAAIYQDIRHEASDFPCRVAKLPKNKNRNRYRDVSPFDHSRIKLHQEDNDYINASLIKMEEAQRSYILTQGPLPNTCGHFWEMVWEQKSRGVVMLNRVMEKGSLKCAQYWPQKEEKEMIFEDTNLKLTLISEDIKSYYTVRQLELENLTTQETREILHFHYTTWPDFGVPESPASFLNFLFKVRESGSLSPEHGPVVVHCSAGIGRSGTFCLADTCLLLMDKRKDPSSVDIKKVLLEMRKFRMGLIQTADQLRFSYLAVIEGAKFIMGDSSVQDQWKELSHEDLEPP
Description: A dilution test was carried out to evaluate if the compound behaves as reversible or irreversible inhibitor of PTP1B. Briefly, an aliquot of the enzyme was diluted with different concentration of inhibitor and the samples incubated at 37 °C for 1 h. After this time, an aliquot of these samples was diluted 500 times in the assay buffer containing 2.5 mM p-NPP, to evaluate whether the enzyme is able to recover its activity since the final concentration of inhibitor is now far away from its IC50 value. Control test was carried out diluting the enzyme with an equal volume of deionised water. All tests were performed in triplicate.
Figure 4 Dilution assay. To evaluate the mechanism of action of the compounds, a reversibility assay was carried out. The PTP1B was incubated in the presence of the saturating concentration of each compound (50 µM) for 1 h at 37 °C. Then, an aliquot of enzyme was diluted 500 folds in the assay buffer to evaluate the residual activity of the enzyme. Tests were carried out in triplicate. Data represent the mean value ± SD.

[2] = target: T1, PTP1B; assay: Determination of the mechanism of inhibition on PTP1B (KM, Vmax, Lineweaver-Burk, secondary plots); type: biochemical; conditions: for α: Ki′ = αKi; for Ki′: from 1/Vmax versus inhibitor concentration (Ki′ = αKi); for Ki: from KM/Vmax versus inhibitor concentration
Description: The inhibitory mechanism of tested compounds was determined studying the dependence between the main kinetics parameters (KM and Vmax) and the inhibitors concentrations. Briefly, KM and Vmax values were calculated measuring the hydrolysis rate of PTP1B in the absence/presence of different inhibitor concentrations, while increasing substrate content. Data obtained were fitted using Michaelis-Menten equation and a non-linear fitting software. Then, data were analysed using the double reciprocal plot (Lineweaver-Burk method).
Figure 5 Kinetic characterization of 3 as PTP1B inhibitor. […] Dependence of main kinetic parameters KM (A) and Vmax (B) from the concentration of compound 3. Lineweaver-Burk plot (C). Bars represent the standard deviations of the means from at least three independent measurements (if not present, they are within the symbol’s size). […] E, free enzyme; S, substrate; ES, enzyme-substrate complex; EI, enzyme-inhibitor complex; ESI the enzyme-substrate-inhibitory ternary complex; Ks, dissociation constant of the enzyme-substrate complex; Ki, dissociation constant of EI complex; αKs and αKi, dissociation constant of enzyme-substrate-inhibitor complex (α > 1).
Figure 6 Secondary plots. KM/Vmax (A) and 1/Vmax (B) versus the inhibitor concentration, respectively. The intercept of straight line with the “x” axis in Panel A, represents the Ki value, while the intercept of straight line with the “x” axis in Panel B represents the Ki′ value (Ki′ = αKi).
Figure 7 Kinetic characterization of 8a as PTP1B inhibitor. […] Dependence of KM (A) and Vmax (B) from the inhibitor concentration. Lineweaver-Burk graph (C). Bars represent the standard deviations of the means from at least three independent measurements (if not present, they are within the symbol’s size). Secondary plots: KM/Vmax (D) and 1/Vmax (E) versus the inhibitor concentration, respectively. The intercept of straight line with the “x” axis in Figure D represents the Ki value, while the intercept of straight line with the “x” axis in Figure E represents the Ki′ value (Ki′ = αKi).

[3] = system: C2C12 cells; assay: Insulin signalling pathway analysis (western blot of pIR and pAkt); type: cell-based, murine; conditions: for Effect on insulin signalling pathway: differentiated C2C12 cells
Description: C2C12 cells were plated on P35 dishes, grown until 80% confluence and then incubated in the presence of differentiation medium (DMEM-high glucose (4500 mg/L) supplemented with 2% Horse serum (HS, Euroclone), 2 mM glutamine, 100 U/mL penicillin, and 100 μg/mL streptomycin) for 4 days. After this time, cell plates were washed with PBS and cells stimulated with 10 nM insulin, compound 3 or insulin-compound 3 combination for 30 min. After cell plates were washed with cold PBS solution and lysed using 1X Leammli sample buffer. Samples were store at 4 °C for 15 min and then protein solutions were collected and boiled for 5 min. Proteins were analysed by SDS-PAGE and then transferred on a PVDF membrane by western blot. Phosphorylation status of insulin receptor and the kinase Akt was evaluated using specific antibodies (pIR β subunit, Y1162/1163 (sc-25103-R) and β-actin, clone C-4 (sc-47778) were from Santa Cruz Biotechnology (Santa Cruz, CA, USA); IR β subunit, clone CT-3 (MABS65) was from Merck-Millipore (Burlington, MA, USA). Akt (9272S) and p-Akt (9271S) antibodies were from Cell Signalling Technology (Danvers, MA, USA). Secondary antibodies were from Santa Cruz Biotechnology (Santa Cruz, CA, USA). Detection was performed using Clarity western ECL substrates (Bio-Rad Laboratories, Inc.).
Figure 12 Effect of compound 3 on insulin signalling pathway. C2C12 cells were incubated with compound 3 (20 µM final concentration) for 30 min, in the presence or not of insulin (10 nM). After that, cells were lysed, and cellular extracts were analysed to evaluate the phosphorylation status of IR and Akt. (A), western blot image; (B,C), quantitation of western blot carried out using Kodak MI software. Data were normalized respect to control sample. All tests were carried out in triplicate. Ctr: control experiment; Ins: cells treated with 10 nM insulin; 3: cells treated with compound 3 (20 µM); 3 + Ins, cells treated with insulin and compound 3. Statistical analysis was carried out using one way ANOVA followed by Tukey’s HSD test for pairwise comparisons. * p < 0.05.

[4] = 20 µM compound + 10 nM insulin, versus insulin alone
[5] = 20 µM compound alone, 30 min, versus control cells

| Compound | Reversibility of PTP1B inhibition [1] | Inhibitory mechanism on PTP1B [2] | α [2] | Ki′ [2] [µM] | Ki [2] [µM] | Effect on insulin signalling pathway [3] | Phosphorylation level of Akt [3, 4] | Phosphorylation level of insulin receptor (IR) [3, 4] | Phosphorylation level of Akt [3, 5] | Phosphorylation level of insulin receptor (IR) [3, 5] |
| --- | --- | --- | --- | --- | --- | --- | --- | --- | --- | --- |
| CCCCC[C@@H](OP(=O)(O)O)[C@@H](O)CC[C@H](CCCC)OC(C)=O (relative stereo) [Compound 8a] | reversible inhibitors | mixed type inhibitor | 1.6 ± 0.1 | 5.4 ± 0.2 | 3.3 ± 0.4 | did not improve the insulin signalling pathway; also recorded: completely inactive | – | – | – | – |
| CCCCCCCCCCCCCCC(OP(=O)(O)O)C(O)CCCO (stereo not shown) [Compound 3] | reversible inhibitors | linear mixed-type inhibitor | 1.4 ± 0.2 | 9.4 ± 0.6 | 6.6 ± 0.8 | acts as an insulin-mimetic agent; also recorded: evident insulin-mimetic activity | not statistically different | not statistically different | increased with respect to control cells | increased with respect to control cells |
